Measured values taken from the OPERA property sets (Mansouri et al. 2018).
Values after ≈ are worked out from the molar mass of the structure shown.

settings: not given

Compound | logP | solubility
CC(C)(O)C(=O)Nc1ccc(Cl)cc1 | 2 | 
CCc1cc2c(s1)N(C)C(=O)CN=C2c1ccccc1Cl | 3.18 | 
Cc1cccc(O[Si]23OCCN(CCO2)CCO3)c1 | 0.15 | 
Nc1nc(=O)n([C@@H]2CS[C@H](CO)O2)cc1F | -0.43 | 
CC(C)C(C#N)c1ccc(Cl)cc1 (stereo not drawn) | 3.41 | 
CN(C)c1cccc([N+](=O)[O-])c1 | 2.16 | 
CSCCCOc1ccc([N+](=O)[O-])cc1 | 3.24 | 
CCCCCCCCC1(CC)C(=O)NC(=O)NC1=O | 3.78 | 
COCCOC(=O)C1=C(C)NC(C)=C(C(=O)OC(C)C)C1c1cccc([N+](=O)[O-])c1 (stereo not drawn) | 3.05 | 
c1ccc2c(c1)ccc1cc3ccc4ccccc4c3cc12 | 6.54 | 
CCCCCCCCCCCCN1CCCC1=O | 4.2 | 
CC(=O)c1c(C)c([N+](=O)[O-])c(C(C)(C)C)c([N+](=O)[O-])c1C | 4.3 | 0.00646 mM (≈ 1.9 µg/mL)
ClC1(Cl)CC1(c1ccccc1)c1ccccc1 | 4.88 | 
COC(=O)c1ccccc1C(=O)OC | 1.6 | 
OCC1CO1 (stereo not drawn) | -0.95 | 
COCCOCCOC | -0.36 | 
ClCC1(C(Cl)Cl)C2CC(Cl)(Cl)C1(C(Cl)Cl)C(Cl)C2Cl (stereo not drawn) | 5.96 | 
CCCCCCOC(=O)c1cccnc1 | 3.51 | 
c1cnc2c(c1)cc1ccc3cccc4ccc2c1c34 | 5.53 | 
CCCC(C)C=O (stereo not drawn) |  | 41.9 mM (≈ 4200 µg/mL)
CC(=O)OC(c1ccc(Cl)c(Cl)c1)C(Cl)(Cl)Cl (stereo not drawn) | 4.92 | 
N=C(N)NN=Cc1ccccc1[N+](=O)[O-] | 0.53 | 

Compound | logP | solubility
c1ncncn1 | 0.12 | 
O=C(OCCOCCOCCO)c1ccccc1 | 1.09 | 
Cc1c(O)c(=O)ccn1CCO | -1.1 | 
c1ccc2c(c1)ccc1c3ccccc3ccc21 | 5.81 | 
Cc1cc(OCCN(C)C)c(C(C)C)cc1O | 2.93 | 
CCCCCCCCOC(=O)c1ccccc1C(=O)OCCCCCCCC | 8.1 | 
C=C(C)C1CCC(C)(O)C1C (stereo not drawn) | 2.87 | 
CS(=O)(=O)c1cccc2ccccc12 | 1.74 | 
CNS(=O)(=O)c1ccc(C)cc1 | 1.28 | 
COc1cccc(N=c2snc3sc(S(N)(=O)=O)nn23)c1 | 2.66 | 
CN1C(=O)C(O)CC1c1cccnc1 (stereo not drawn) | -1.45 | 
OC(CNC1COCCC1Br)Cn1ccnc1 (stereo not drawn) | -0.17 | 
CCCCC(=O)Oc1ccc(CC(N)C(=O)O)cc1 (stereo not drawn) | 0.07 | 
C=CC(=O)NCCCN(C)C | 0 | 
C1CCC(C2CO2)CC1 (stereo not drawn) | 2.43 | 
O=P(O)(O)CCCl | -0.22 | 
OCCCNc1ccccc1 | 0.57 | 
C1=CCC=C1 |  | 27.2 mM (≈ 1800 µg/mL)
Cc1cc(Cc2ccc(Cl)c(Cl)c2)c(Cl)cc1Cl | 7.26 | 
O=[N+]([O-])c1ccc(Oc2c(Cl)cc(Cl)cc2Cl)cc1 | 4.97 | 
c1ccc2c(c1)cc1ccc3cccc4ccc2c1c34 | 6.13 | 
ClC1=CC2(Cl)C3C(Cl)C(Cl)C(Cl)C3C1(Cl)C2(Cl)Cl (stereo not drawn) | 5.91 | 

same assay, conditions: 20 °C

Compound | solubility
CCOC(C)(C)C | 117 mM (≈ 12000 µg/mL)

same assay, conditions: 22 °C

Compound | solubility
O=[N+]([O-])c1ccc(Oc2c(Cl)cc(Cl)cc2Cl)cc1 | 0.0024 mM (≈ 0.764 µg/mL)

same assay, conditions: 25 °C

Compound | solubility
O=C(O)CCCOc1cc(Cl)c(Cl)cc1Cl | 0.148 mM (≈ 42 µg/mL)
c1ccc2c(c1)ccc1cc3ccc4ccccc4c3cc12 | 3.7e-06 mM (≈ 0.00103 µg/mL)
Nc1nc[nH]n1 | 3330 mM (≈ 280000 µg/mL)
COC(=O)c1ccccc1C(=O)OC | 20.6 mM (≈ 4000 µg/mL)
O=C1C2(Cl)C3(Cl)C4(Cl)C(Cl)(Cl)C5(Cl)C3(Cl)C1(Cl)C5(Cl)C24Cl (stereo not drawn) | 0.0055 mM (≈ 2.7 µg/mL)
Oc1nc(O)nc(O)n1 | 15.5 mM (≈ 2000 µg/mL)
Oc1ccccc1Cl | 87.9 mM (≈ 11300 µg/mL)
CCCOC(=O)COc1ccc(Cl)cc1Cl | 0.0562 mM (≈ 14.8 µg/mL)
c1ccc2c(c1)ccc1c3ccccc3ccc21 | 8.76e-06 mM (≈ 0.002 µg/mL)
CCCCCCCCOC(=O)c1ccccc1C(=O)OCCCCCCCC | 5.63e-05 mM (≈ 0.022 µg/mL)
O=C(O)C(Br)(Br)Br | 674 mM (≈ 200000 µg/mL)
Brc1cc(Br)c(Br)cc1Br | 0.000102 mM (≈ 0.04 µg/mL)
c1ccc2c(c1)cc1ccc3cccc4ccc2c1c34 | 6.42e-06 mM (≈ 0.00162 µg/mL)
CCOP(=S)(OCC)SCSC(C)(C)C | 0.0176 mM (≈ 5.07 µg/mL)

same assay, conditions: 25.0 °C

Compound | log10 OH rate constant (cm³/molecule/s)
FC(Br)C(F)(F)F (stereo not drawn) | -13.8
CCCCCl | -11.8
CC(C)(C)Cl | -12.4

same assay, conditions: 27.0 °C

Compound | log10 OH rate constant (cm³/molecule/s)
O=Cc1ccoc1 | -10.3
O=C1C=CC(=O)C=C1 | -11.3
CNC(C)=O | -11.3

same assay, conditions: 30 °C

Compound | solubility
Ic1ccccc1 | 1.67 mM (≈ 340 µg/mL)
